Source: patent publication US20030110524A1, “TRANSGENIC ORGANISMS AND THEIR USES” (priority 1997, published 2003)

How the values were obtained:
[1] = tested on: thyroid cells derived from control rats; assay: Survival of thyroid cells from control rats with drugs; type: cell-based, rat; settings: for Survival of thyroid cells (related to number of cells in control cultures without drug): control rat cells, drugs added at day 2, geneticin 400 μg/ml, ACG 10 μg/ml
Method: (§1) Thyroid cultures derived from the thyroid gland of adult CD2/neo^r, TG/TK/neo^r and control animals were produced by routine methods (Freshney, 1987). Twenty-four hours after plating, geneticin (400 μg/ml) was added to cultures originating from both types of transgenic and the control rats, and replaced every three days with fresh medium. When required, cells were subcultured (1:2) to prevent their becoming confluent. Cell counts were made manually in 20 fields chosen randomly, and the values at each time point, after allowing for changes due to subculturing, were aggregated (Table 3). […] Ten days later, cell counts were again made of 20 fields chosen at random. […] The results were as expected in view of the specific and non-specific expression of the positive and negative selection markers, in the TG/TK/neo^r and CD2/neo^r transgenics, respectively.
(§2) Drugs were added at day 2 in culture. Values are related to the number of cells found in control cultures without drug additions at various times after plating, and allow for dilutions resulting from passaging. Figures are the means of three separate determinations, the standard errors all being less than 15% of the mean.

[2] = tested on: thyroid cells derived from TG/TK/neo^r transgenic rats; assay: Survival of thyroid cells from TG/TK/neo^r transgenic rats with drugs; type: cell-based, rat; settings: for Survival of thyroid cells (related to number of cells in control cultures without drug): TG/TK/neo^r rat cells, drugs added at day 2, geneticin 400 μg/ml, ACG 10 μg/ml
Method: as §1, §2

[3] = tested on: thyroid cells derived from CD2/neo^r transgenic rats; assay: Survival of thyroid cells from CD2/neo^r transgenic rats with drugs; type: cell-based; settings: CD2/neo^r rat cells, drugs added at day 2, geneticin 400 μg/ml, ACG 10 μg/ml
Method: as §1, §2

thyroid follicle cells = assay: Ablation of thyroid follicle cells in vivo; parameters: species or system rat
[4] = tested on: lung fibroblast cells derived from control rats; assay: Survival of lung fibroblast cells from control rats with drugs; type: cell-based, rat; settings: for Survival of lung fibroblast cells (related to number of cells in control cultures without drug): control rat cells, drugs added at day 2, geneticin 400 μg/ml, 5FC 100 μg/ml
Method: (§3) Fibroblast cultures derived from lung of adult CD2/neo^r, TG/TK/neo^r and control animals were produced and expanded by routine methods (Freshney (1987), Alan R. Liss, New York). Twenty-four hours after plating, geneticin (400 μg/ml) was added to cultures originating from both types of transgenic rats and from control rats, and replaced every three days with fresh medium. When required, cells were subcultured (1:3) to prevent them becoming confluent, again by basic culture methods (Freshney 1987). Cell counts were made manually in 20 fields chosen randomly and the values at each time point, after allowing for changes due to subculturing, were aggregated. […] In the absence of added geneticin, no change in cell survival from either of the transgenic animals was observed.
(§4) The effects of 5-fluorocytosine (5FC) were also determined. 5-fluorocytosine at a concentration of 100 μg/ml had no effect on fibroblast cells derived from control animals or from the TG/TK/neo^r transgenic. In the cells derived from the CD2/neo^r transgenic animal, however, 94% of the originally-plated cells died, or were non-functional (as determined by their failure to exclude trypan blue) after 10 days culture in the presence of 5FC (Table 2).
as §2, with “allowing” for “allow”

[5] = tested on: lung fibroblast cells derived from TG/TK/neo^r transgenic rats; assay: Survival of lung fibroblast cells from TG/TK/neo^r transgenic rats with drugs; type: cell-based, rat; settings: for Survival of lung fibroblast cells (related to number of cells in control cultures without drug): TG/TK/neo^r rat cells, drugs added at day 2, geneticin 400 μg/ml, 5FC 100 μg/ml
Method: as §3, §4
as §2, with “allowing” for “allow”

[6] = tested on: lung fibroblast cells derived from CD2/neo^r transgenic rats; assay: Survival of lung fibroblast cells from CD2/neo^r transgenic rats with drugs; type: cell-based, rat; settings: for Survival of lung fibroblast cells (related to number of cells in control cultures without drug): CD2/neo^r rat cells, drugs added at day 2, geneticin 400 μg/ml, 5FC 100 μg/ml
Method: as §3, §4
as §2, with “allowing” for “allow”

[7] = transgenic rats treated with ACG for 12 days

## Nc1nc2c(ncn2COCCO)c(=O)[nH]1 [ACG, acycloguanosine]
[1]; control animals, 10 μg/ml ACG
  Survival of thyroid cells under ACG treatment: the cells derived from the control animals did
[1]; day 1 in culture
  Survival of thyroid cells (related to number of cells in control cultures without drug): 94
[1]; day 3 in culture
  Survival of thyroid cells (related to number of cells in control cultures without drug): 97
[1]; day 5 in culture
  Survival of thyroid cells (related to number of cells in control cultures without drug): 98
[1]; day 7 in culture
  Survival of thyroid cells (related to number of cells in control cultures without drug): 91
[1]; day 9 in culture
  Survival of thyroid cells (related to number of cells in control cultures without drug): 92
[1]; day 11 in culture
  Survival of thyroid cells (related to number of cells in control cultures without drug): 102
[2]; day 1 in culture
  Survival of thyroid cells (related to number of cells in control cultures without drug): 98
[2]; day 3 in culture
  Survival of thyroid cells (related to number of cells in control cultures without drug): 38
[2]; day 5 in culture
  Survival of thyroid cells (related to number of cells in control cultures without drug): 12
[2]; day 7 in culture
  Survival of thyroid cells (related to number of cells in control cultures without drug): 10
[2]; day 9 in culture
  Survival of thyroid cells (related to number of cells in control cultures without drug): 8
[2]; day 11 in culture
  Survival of thyroid cells (related to number of cells in control cultures without drug): 7
[2]; TG/TK/neo^r transgenic, 10 μg/ml ACG
  Survival of thyroid cells under ACG treatment: did not survive ACG treatment
[3]; day 1 in culture
  Survival of thyroid cells (related to number of cells in control cultures without drug): 98
[3]; day 3 in culture
  Survival of thyroid cells (related to number of cells in control cultures without drug): 90
[3]; day 5 in culture
  Survival of thyroid cells (related to number of cells in control cultures without drug): 93
[3]; day 7 in culture
  Survival of thyroid cells (related to number of cells in control cultures without drug): 93
[3]; day 9 in culture
  Survival of thyroid cells (related to number of cells in control cultures without drug): 97
[3]; day 11 in culture
  Survival of thyroid cells (related to number of cells in control cultures without drug): 88
Thyroid follicle cells; lower amounts of ACG per day
  Effect on T3 and T4: partial loss of T3 and T4
Thyroid follicle cells; transgenic adult female rats, 50 mg ACG per day i.p. for 5 days, seven days after the final injection, N=6
  Serum level of T4: less than 2.5 nM
Thyroid follicle cells; [7]
  Histochemical analysis of thyroid glands: almost complete loss of follicular cells
  Thyroid gland weight, of the original weights: 7%

## Nc1nc(=O)[nH]cc1F [5FC, 5-fluorocytosine]
[4]; control animals, 100 μg/ml
  Effect of 5-fluorocytosine on fibroblast cells: had no effect
[4]; day 1 in culture
  Survival of lung fibroblast cells (related to number of cells in control cultures without drug): 101
[4]; day 3 in culture
  Survival of lung fibroblast cells (related to number of cells in control cultures without drug): 105
[4]; day 5 in culture
  Survival of lung fibroblast cells (related to number of cells in control cultures without drug): 98
[4]; day 7 in culture
  Survival of lung fibroblast cells (related to number of cells in control cultures without drug): 97
[4]; day 9 in culture
  Survival of lung fibroblast cells (related to number of cells in control cultures without drug): 93
[4]; day 11 in culture
  Survival of lung fibroblast cells (related to number of cells in control cultures without drug): 96
[4]; control rats
  Difference in cell counts between cultures in the absence and presence of 5FC: no significant difference in cell counts
[5]; day 1 in culture
  Survival of lung fibroblast cells (related to number of cells in control cultures without drug): 98
[5]; day 3 in culture
  Survival of lung fibroblast cells (related to number of cells in control cultures without drug): 96
[5]; day 5 in culture
  Survival of lung fibroblast cells (related to number of cells in control cultures without drug): 95
[5]; day 7 in culture
  Survival of lung fibroblast cells (related to number of cells in control cultures without drug): 92
[5]; day 9 in culture
  Survival of lung fibroblast cells (related to number of cells in control cultures without drug): 92
[5]; day 11 in culture
  Survival of lung fibroblast cells (related to number of cells in control cultures without drug): 93
[5]; TG/TK/neo^r transgenic, 100 μg/ml
  Effect of 5-fluorocytosine on fibroblast cells: had no effect
[6]; day 1 in culture
  Survival of lung fibroblast cells (related to number of cells in control cultures without drug): 94
[6]; day 3 in culture
  Survival of lung fibroblast cells (related to number of cells in control cultures without drug): 5
[6]; day 5 in culture
  Survival of lung fibroblast cells (related to number of cells in control cultures without drug): 3
[6]; day 7 in culture
  Survival of lung fibroblast cells (related to number of cells in control cultures without drug): 3
[6]; day 9 in culture
  Survival of lung fibroblast cells (related to number of cells in control cultures without drug): 4
[6]; day 11 in culture
  Survival of lung fibroblast cells (related to number of cells in control cultures without drug): 4
[6]; CD2/neo^r transgenic, 100 μg/ml, after 10 days culture in the presence of 5FC
  Originally-plated cells died, or were non-functional (failure to exclude trypan blue): 94%
